The target in assay [1] is T1, TLR7 (Homo sapiens, UniProt Q9NYK1).
T1 construct: lymphocytes, monocytes and dendritic cells that express TLR7, TLR8 and TLR9; endogenous in cells; host or cells: human PBMCs from healthy donors
T1 sequence (Q9NYK1 27-1049): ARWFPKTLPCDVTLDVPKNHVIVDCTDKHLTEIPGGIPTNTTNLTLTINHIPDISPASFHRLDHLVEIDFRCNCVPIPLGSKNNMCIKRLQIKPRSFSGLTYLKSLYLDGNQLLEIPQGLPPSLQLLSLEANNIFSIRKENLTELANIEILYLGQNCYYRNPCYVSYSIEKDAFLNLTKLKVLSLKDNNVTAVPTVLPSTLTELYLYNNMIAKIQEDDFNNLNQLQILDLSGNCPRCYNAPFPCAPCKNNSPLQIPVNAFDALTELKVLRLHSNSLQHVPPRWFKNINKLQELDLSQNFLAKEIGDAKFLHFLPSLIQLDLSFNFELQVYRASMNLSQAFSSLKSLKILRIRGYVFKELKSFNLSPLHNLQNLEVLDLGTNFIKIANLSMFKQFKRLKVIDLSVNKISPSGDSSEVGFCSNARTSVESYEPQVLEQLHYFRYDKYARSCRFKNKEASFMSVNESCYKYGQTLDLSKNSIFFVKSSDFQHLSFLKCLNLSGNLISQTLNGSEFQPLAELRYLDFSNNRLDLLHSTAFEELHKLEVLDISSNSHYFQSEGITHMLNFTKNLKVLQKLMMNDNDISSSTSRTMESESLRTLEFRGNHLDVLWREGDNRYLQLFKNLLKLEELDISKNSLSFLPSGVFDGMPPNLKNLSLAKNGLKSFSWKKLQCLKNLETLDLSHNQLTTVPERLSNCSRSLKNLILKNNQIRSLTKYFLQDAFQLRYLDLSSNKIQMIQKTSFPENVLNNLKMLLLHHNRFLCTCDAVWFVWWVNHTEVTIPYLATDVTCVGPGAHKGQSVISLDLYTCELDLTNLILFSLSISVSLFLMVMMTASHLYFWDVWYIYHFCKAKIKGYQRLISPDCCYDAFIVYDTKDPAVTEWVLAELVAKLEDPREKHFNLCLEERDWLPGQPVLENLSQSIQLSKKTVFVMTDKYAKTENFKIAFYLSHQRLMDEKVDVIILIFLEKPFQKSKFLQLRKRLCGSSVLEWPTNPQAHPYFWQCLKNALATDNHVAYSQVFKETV
As to the kind of experiment: Human PBMC cell-based assay, TLR7 agonist GS-986 stimulation, cytokine (IL-6 and IFNα) readout. Particulars: human PBMCs, GS-986 400 nM, 6 hours; Table 26; read-out: TLR-7 EC50. The gist of the method: (§1)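 Readout is IL-6 and IFNα in supernatants, quantified by electrochemiluminescence, with EC50 from a sigmoidal fit of cytokine versus concentration. Healthy-donor human PBMCs, 100,000 per well, got antagonist for 1 h at 37 °C, then 6 h agonist exposure: TLR7 via GS-986 at 400 nM final, TLR9 via ODN-2216 at 3 μM final.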

Assay [2] addresses T2, TLR8 (Homo sapiens, UniProt Q9NR97).
T2 construct: lymphocytes, monocytes and dendritic cells that express TLR7, TLR8 and TLR9; endogenous in cells; host or cells: human PBMCs from healthy donors
T2 sequence (Q9NR97 27-1041): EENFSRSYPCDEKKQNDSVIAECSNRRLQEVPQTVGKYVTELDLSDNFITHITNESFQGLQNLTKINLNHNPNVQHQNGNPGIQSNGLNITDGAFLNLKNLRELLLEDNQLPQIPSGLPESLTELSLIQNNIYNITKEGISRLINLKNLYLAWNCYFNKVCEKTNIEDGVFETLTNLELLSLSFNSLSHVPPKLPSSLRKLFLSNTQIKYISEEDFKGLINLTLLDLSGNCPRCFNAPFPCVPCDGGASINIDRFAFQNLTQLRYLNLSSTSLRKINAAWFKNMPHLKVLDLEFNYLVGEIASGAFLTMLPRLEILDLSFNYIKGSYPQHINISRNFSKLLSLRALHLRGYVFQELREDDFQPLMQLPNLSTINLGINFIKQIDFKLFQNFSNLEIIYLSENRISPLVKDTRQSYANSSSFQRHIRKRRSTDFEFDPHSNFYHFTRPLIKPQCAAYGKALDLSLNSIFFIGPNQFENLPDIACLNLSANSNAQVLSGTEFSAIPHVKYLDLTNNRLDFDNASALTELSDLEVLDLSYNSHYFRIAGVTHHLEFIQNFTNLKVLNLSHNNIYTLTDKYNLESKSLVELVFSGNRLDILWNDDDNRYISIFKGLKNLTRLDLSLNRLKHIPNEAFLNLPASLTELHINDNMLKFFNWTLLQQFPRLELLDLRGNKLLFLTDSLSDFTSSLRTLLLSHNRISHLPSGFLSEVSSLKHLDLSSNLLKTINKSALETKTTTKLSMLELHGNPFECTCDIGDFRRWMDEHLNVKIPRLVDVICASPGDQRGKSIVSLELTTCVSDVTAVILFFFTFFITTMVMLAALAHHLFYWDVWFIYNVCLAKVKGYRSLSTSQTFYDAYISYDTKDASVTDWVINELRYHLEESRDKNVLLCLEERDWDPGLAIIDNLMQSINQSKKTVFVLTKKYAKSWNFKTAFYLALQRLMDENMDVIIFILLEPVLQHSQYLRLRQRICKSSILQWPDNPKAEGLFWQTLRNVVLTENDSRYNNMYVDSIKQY
As to the kind of experiment: TLR8 human PBMC cell-based assay, TLR8 agonist Compound A stimulation, cytokine (TNFa and IL12p40) readout. Particulars: human PBMCs, Compound A 800 nM, 6 hours; Table 26; read-out: TLR-8 EC50. The method, then:
Cryopreserved human PBMCs from healthy donors were thawed and resuspended in RPMI-1640 media with L-glutamine (Corning) supplemented with 10% Fetal Bovine Serum (Hyclone) and 1X Penicillin-Streptomycin (Corning). After counting, the cell density was adjusted to 2 million cells/ml and incubated for 1 hour at 37° C., 5% CO2 for recovery. Following the recovery, the cells were plated by adding 50p per well (100,000 cells) to 384-well cell culture plates (Greiner) containing 250nl of test antagonists in 100% DMSO per well, in a 10 points dose response in quadruplicates. PBMCs were incubated in the presence of antagonists for one hour at 37° C., 5% CO2 before being stimulated with TLR8 agonist. Compound A (Gilead Sciences, U.S. Pat. No. 10,285,990) was used as the TLR8 agonist at a final concentration of 800 nM. PBMCs were incubated in the presence of antagonist and the TLR8 agonist for an additional 6 hours at 37° C., […]. At the end of the incubation, the cell culture plates were centrifuged at 500 g for 5 min, and the cell culture supernatant was collected. The level of cytokines (TNFa and IL12p40) in the supernatant was measured by electrochemiluminescence immunoassays (Mesoscale Discovery) following manufacturer's recommended protocols. The level of cytokine measured was plotted against the antagonist concentration and fitted to a sigmoidal function to determine the EC50, which are shown below in Table 11.

The target in assay [3] is T3, TLR9 (Homo sapiens, UniProt Q9NR96).
T3 construct: lymphocytes, monocytes and dendritic cells that express TLR7, TLR8 and TLR9; endogenous in cells; host or cells: human PBMCs from healthy donors
T3 sequence (Q9NR96 26-1032): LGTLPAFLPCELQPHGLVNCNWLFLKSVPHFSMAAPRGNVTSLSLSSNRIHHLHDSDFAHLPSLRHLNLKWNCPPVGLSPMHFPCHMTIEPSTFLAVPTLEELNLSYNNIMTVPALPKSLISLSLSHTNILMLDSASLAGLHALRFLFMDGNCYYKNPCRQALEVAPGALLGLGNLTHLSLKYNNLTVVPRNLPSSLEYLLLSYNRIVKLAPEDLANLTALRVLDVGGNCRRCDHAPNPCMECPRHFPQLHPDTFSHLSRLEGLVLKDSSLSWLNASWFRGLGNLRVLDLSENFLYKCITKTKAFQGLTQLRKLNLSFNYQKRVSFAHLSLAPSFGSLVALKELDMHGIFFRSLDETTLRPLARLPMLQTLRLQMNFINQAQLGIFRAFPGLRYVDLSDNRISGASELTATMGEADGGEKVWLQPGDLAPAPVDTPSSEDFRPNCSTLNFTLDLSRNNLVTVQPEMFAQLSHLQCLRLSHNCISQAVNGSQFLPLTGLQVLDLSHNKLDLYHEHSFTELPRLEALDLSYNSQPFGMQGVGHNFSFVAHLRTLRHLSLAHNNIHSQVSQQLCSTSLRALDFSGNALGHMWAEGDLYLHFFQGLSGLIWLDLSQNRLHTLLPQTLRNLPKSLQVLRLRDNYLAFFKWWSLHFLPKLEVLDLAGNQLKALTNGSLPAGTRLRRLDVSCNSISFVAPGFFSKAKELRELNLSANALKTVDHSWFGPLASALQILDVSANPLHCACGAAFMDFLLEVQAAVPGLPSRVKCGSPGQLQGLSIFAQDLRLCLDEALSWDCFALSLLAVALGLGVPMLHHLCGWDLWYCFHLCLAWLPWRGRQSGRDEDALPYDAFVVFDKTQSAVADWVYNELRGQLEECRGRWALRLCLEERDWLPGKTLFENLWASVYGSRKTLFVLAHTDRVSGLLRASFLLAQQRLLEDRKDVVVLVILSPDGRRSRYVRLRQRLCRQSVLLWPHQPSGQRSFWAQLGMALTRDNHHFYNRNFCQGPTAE
As to the kind of experiment: Human PBMC cell-based assay, TLR9 agonist ODN-2216 stimulation, cytokine (IL-6 and IFNα) readout. Particulars: human PBMCs, ODN-2216 3 μM, 6 hours; Table 26; read-out: TLR-9 EC50. Put shortly: as §1

In general, EC50 refers to the concentration at which the effect is half-maximal.

In the case of `Cc1cc(-c2[nH]c3cc(-c4ccc(N5CCNCC5)nc4)ccc3c2C2CC2)cn2ncnc12` [Example 175], the EC50 in assay [1] amounted to 0.15 nM; in assay [2], 8.15 nM.

Turning to `CCc1c(-c2cc(OC)c3ncnn3c2)[nH]c2cc(-c3ccc(N4CCN(C(=O)C56CC(CN5)C6)CC4)nc3)ccc12` [Example 174], the results for the EC50 in assay [1] and in assay [2] were 0.12 nM and 3.33 nM, respectively.

With `Cc1c(-c2cc(C)c3ncnn3c2)[nH]c2cc(-c3nnc(C4CCNCC4)o3)ccc12` [Example 191], the concentration giving a half-maximal response (EC50) in assay [1] worked out at 49.1 nM; in assay [2], 269 nM.

With `Cc1c(-c2cc(C)c3ncnn3c2)[nH]c2cc(-c3nnc(N4CCNCC4)o3)ccc12` [Example 192], the concentration giving a half-maximal response (EC50) in assay [1] stood at 65.6 nM; in assay [2] it was 403 nM.

Consider `CCc1c(-c2cc(C)nc(C)c2)[nH]c2cc(C3CCNCC3)ccc12` [Example 49, 2-(2,6-dimethylpyridin-4-yl)-3-ethyl-6-(piperidin-4-yl)-1H-indole], for which the figures for the EC50 in assay [1] and in assay [3] were 549 nM and 358 nM, respectively.

As for `CCc1c(-c2cc(C)c3ncnn3c2)[nH]c2cc(-c3ccc(N4CCN(CCO)CC4)nc3)ccc12` [Example 173], the half-maximal effective concentration (EC50) in assay [1] is 0.11 nM; in assay [2] it was 5.16 nM.

As to `Cc1cc(-c2[nH]c3cc(-c4ccc(N5CC[C@@H](N)C5)nc4)ccc3c2C)cc(C)n1` [Example 31], the concentration giving a half-maximal response (EC50) came out at 8.3 nM in assay [1] and 13.5 nM in assay [3].

As for `Cc1cc(-c2[nH]c3cc(-c4ccc(N5CC6CNCC6C5)nc4)ccc3c2C)cc(C)n1` (stereo not shown) [Example 34], the half-maximal effective concentration (EC50) in assay [1] was 17.7 nM; in assay [3], 83.4 nM.

With `Cc1cc(-c2[nH]c3cc(-c4cnn5c4CNCC5)ccc3c2C)cc(C)n1` [Example 10], the 50% effective concentration (EC50) in assay [1] is 210 nM; in assay [3] it was 392 nM.

Take `Cc1cc(-c2[nH]c3cc(-c4ccc(N5CCC[C@H](N)C5)nc4)ccc3c2C)cc(C)n1` [Example 26]: the results for the concentration giving a half-maximal response (EC50) in assay [1] and in assay [3] were 31 nM and 40.2 nM, respectively.

Regarding `Cc1cc(-c2[nH]c3cc(-c4ccc(N5CCNCC5)cc4)ccc3c2C)cc(C)n1` [Example 66], the half-maximal effective concentration (EC50) turned out to be 83.2 nM in assay [1] and 51.2 nM in assay [3].

In the case of `Cc1cc(-c2[nH]c3cc(-c4nc(N5CCNCC5)no4)ccc3c2C)cc(C)n1` [Example 188, 5-[2-(2,6-dimethyl-4-pyridyl)-3-methyl-1H-indol-6-yl]-3-piperazin-1-yl-1,2,4-oxadiazole], the 50% effective concentration (EC50) in assay [1] was 270 nM; in assay [3] it was 175 nM.

In the case of `Cc1cc(-c2[nH]c3cc(-c4ccc(N5CCN(CCO)C(=O)C5)nc4)ccc3c2C)cc(C)n1` [Example 39], the EC50 was determined as 26.4 nM in assay [1] and 310 nM in assay [3].

As to `Cc1cc(-c2[nH]c3cc(-c4ccc(N5C[C@H]6CC[C@@H](C5)[C@H]6N)nc4)ccc3c2C)cc(C)n1` [Example 27], the concentration for a half-maximal effect (EC50) in assay [1] amounted to 196 nM; in assay [3] it was 55.2 nM.

Values taken from patent US20250002471A1 (Gilead Sciences, Inc., priority 2020, published 2025).
